Counter-ions that a name gives are not always drawn.
Target: T1, Rat Androgen Receptor (Rattus norvegicus, UniProt P15207)
T1 construct: purchased Life Technologies A15880
T1 sequence (P15207 646-902 limits assumed): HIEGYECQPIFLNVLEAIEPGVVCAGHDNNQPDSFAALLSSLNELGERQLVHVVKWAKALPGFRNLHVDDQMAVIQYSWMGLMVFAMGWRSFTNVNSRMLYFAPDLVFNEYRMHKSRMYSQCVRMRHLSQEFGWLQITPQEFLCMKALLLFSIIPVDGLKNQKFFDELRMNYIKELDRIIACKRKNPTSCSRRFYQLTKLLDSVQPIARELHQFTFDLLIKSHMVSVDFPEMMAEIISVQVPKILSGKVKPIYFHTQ
Assay: Rat Androgen Receptor Binding (polarscreen AR competitor assay, fluorescence polarization)
Details: displacement of Fluormone AL Green, 4 hours at RT, read-out: AR rat-fluorimetric
Experimental: Pharmacological Activity Rat Androgen Receptor Binding
The assay was carried out following the instructions of polarscreen AR competitor assay green kit (Life Technologies, Cat #.: A15880). Briefly, the test is based on measuring the changes of fluorescence polarization shown by the Fluormone AL Green. Thus, when the Fluormone is bound to the receptor, a fluorescence polarization is observed that diminishes when a ligand competes for the receptor binding site and the Fluormone gets displaced.
The inhibition values for each of the compounds are measured in duplicate at 1 and 10 μM and the plate is incubated for 4 hours at RT. Fluorescence polarization is the measured in a Tecan Infinite M1000 Pro reader (λexc=485 nm, λem=535 nm). In order to obtain a dose-response curve and calculate the potency of inhibition (expressed as IC50) for AR, a series of 1:10 dilutions in test in 1× buffer from 10 μM to 0.1 nM for each compound was carried out.

Row | IC50 [nM] | Structure (SMILES)
1 | 100 to 1000 | CC(=O)C1=C(C)NC(C)=C(C(=O)OCC2CCCC2)C1c1csc2ncccc12 (stereo not shown) [Example C35, Cyclopentylmethyl 5-acetyl-2,6-dimethyl-4-(thieno[2,3-b]pyridin-3-yl)-1,4-dihydropyridine-3-carboxylate]
2 | < 100 | COC(=O)C1=C(C2CC2)NC(C)=C(C(C)=O)C1c1csc2ccccc12 (stereo not shown) [Example J1, Methyl 5-acetyl-4-(benzo[b]thiophen-3-yl)-2-cyclopropyl-6-methyl-1,4-dihydropyridine-3-carboxylate]
3 | < 100 | CCOC(=O)C1=C(C)NC(C)=C(C(C)=O)C1c1csc2ccccc12 (stereo not shown) [Example J2, Ethyl 5-acetyl-4-(benzo[b]thiophen-3-yl)-2,6-dimethyl-1,4-dihydropyridine-3-carboxylate]
4 | 100 to 1000 | COC(=O)C1=C(C)NC(C)=C(C(C)=O)C1c1csc2ccc(Cl)cc12 (stereo not shown) [Example J3, Methyl 5-acetyl-4-(5-chlorobenzo[b]thiophen-3-yl)-2,6-dimethyl-1,4-dihydropyridine-3-carboxylate]
5 | ≥ 1000 | CC(=O)C1=C(C)NC(C2CC2)=C(C(C)=O)C1c1csc2ccccc12 (stereo not shown) [Example J6, 1,1′-(4-(benzo[b]thiophen-3-yl)-2-cyclopropyl-6-methyl-1,4-dihydro-pyridine-3,5-diyl)diethanone]
6 | 100 to 1000 | CC(=O)C1=C(C)NC(C)=C(S(C)(=O)=O)C1c1csc2ccccc12 (stereo not shown) [Example J10, 1-(4-(benzo[b]thiophen-3-yl)-2,6-dimethyl-5-(methylsulfonyl)-1,4-dihydro-pyridin-3-yl)ethanone]
7 | < 100 | COC(=O)C1=C(C)NC(C)=C(C(C)=O)C1c1csc2ccc(F)cc12 (stereo not shown) [Example J11, Methyl 5-acetyl-4-(5-fluorobenzo[b]thiophen-3-yl)-2,6-dimethyl-1,4-dihydropyridine-3-carboxylate]
8 | < 100 | COC(=O)C1=C(C)NC(C)=C(C(C)=O)C1c1csc2ccc(Br)cc12 (stereo not shown) [Example J12, Methyl 5-acetyl-4-(5-bromobenzo[b]thiophen-3-yl)-2,6-dimethyl-1,4-dihydropyridine-3-carboxylate]
9 | ≥ 1000 | COC(=O)C1=C(C)NC(C)=C(C(C)=O)C1c1csc2ccc(C#N)cc12 (stereo not shown) [Example J13, Methyl 5-acetyl-4-(5-cyanobenzo[b]thiophen-3-yl)-2,6-dimethyl-1,4-dihydropyridine-3-carboxylate]
10 | ≥ 1000 | COC(=O)C1=C(C)NC(C)=C(C(C)=O)C1c1csc2ccc(C(=O)O)cc12 (stereo not shown) [Example J14, 3-(3-acetyl-5-(methoxycarbonyl)-2,6-dimethyl-1,4-dihydropyridin-4-yl)benzo[b]thiophene-5-carboxylic acid]
11 | ≥ 1000 | COC(=O)C1=C(C)NC(C)=C(C(C)=O)C1c1csc2ccc(C(=O)NC3CC3)cc12 (stereo not shown) [Example J15, Methyl 5-acetyl-4-(5-(cyclopropylcarbamoyl)benzo[b]thiophen-3-yl)-2,6-dimethyl-1,4-dihydropyridine-3-carboxylate]
12 | ≥ 1000 | COC(=O)C1=C(C)NC(C)=C(C(C)=O)C1c1csc2ccc(C(=O)NCC3CC3)cc12 (stereo not shown) [Example J16, Methyl 5-acetyl-4-(5-((cyclopropylmethyl)carbamoyl)benzo[b]thiophen-3-yl)-2,6-dimethyl-1,4-dihydropyridine-3-carboxylate]
13 | ≥ 1000 | COC(=O)C1=C(C)NC(C)=C(C(C)=O)C1c1csc2ccc(C(=O)N3CCN(C)CC3)cc12 (stereo not shown) [Example J17, Methyl 5-acetyl-2,6-dimethyl-4-(5-(4-methylpiperazine-1-carbonyl)benzo[b]thiophen-3-yl)-1,4-dihydropyridine-3-carboxylate]
14 | ≥ 1000 | COC(=O)C1=C(C)NC(C)=C(C(C)=O)C1c1csc2ccc(C(=O)N3CCOCC3)cc12 (stereo not shown) [Example J18, Methyl 5-acetyl-2,6-dimethyl-4-(5-(morpholine-4-carbonyl)benzo[b]thiophen-3-yl)-1,4-dihydropyridine-3-carboxylate]
15 | ≥ 1000 | COC(=O)C1=C(C)NC(C)=C(C(C)=O)C1c1csc2ccncc12 (stereo not shown) [Example J19, Methyl 5-acetyl-2,6-dimethyl-4-(thieno[3,2-c]pyridin-3-yl)-1,4-dihydropyridine-3-carboxylate]
16 | 100 to 1000 | COC(=O)C1=C(C)NC(C)=C(C(C)=O)C1c1csc2cnccc12 (stereo not shown) [Example J20, Methyl 5-acetyl-2,6-dimethyl-4-(thieno[2,3-c]pyridin-3-yl)-1,4-dihydropyridine-3-carboxylate]
17 | ≥ 1000 | COC(=O)C1=C(C2CC2)NC(C2CC2)=C(C(C)=O)C1c1csc2ccccc12 (stereo not shown) [Example J24, Methyl 5-acetyl-4-(benzo[b]thiophen-3-yl)-2,6-dicyclopropyl-1,4-dihydropyridine-3-carboxylate]
18 | 100 to 1000 | COC(=O)C1=C(N)NC(C)=C(C(C)=O)C1c1csc2ccccc12 (stereo not shown) [Example K1, Methyl 5-acetyl-2-amino-4-(benzo[b]thiophen-3-yl)-6-methyl-1,4-dihydropyridine-3-carboxylate hydrochloride]
19 | ≥ 1000 | COC(=O)C1=C(N)NC(C)=C(C(C)=O)C1c1csc2ccccc12 (stereo not shown) [Example K2, Methyl 5-acetyl-2-amino-4-(benzo[b]thiophen-3-yl)-6-methyl-1,4-dihydropyridine-3-carboxylate trifluoromethanesulfonate]
20 | ≥ 1000 | CC(=O)C1=C(C)NC(C)=C(C(=O)OCc2cncc(-c3cccnc3)c2)C1c1csc2ncccc12 (stereo not shown) [Example L8, [3,3′-bipyridin]-5-ylmethyl 5-acetyl-2,6-dimethyl-4-(thieno[2,3-b]pyridin-3-yl)-1,4-dihydropyridine-3-carboxylate]
21 | ≥ 1000 | CC(=O)C1=C(C)NC(C)=C(C(C)=O)C1c1csc2ccc(-c3cccnc3)cc12 [Example M1, 1,1′-(2,6-dimethyl-4-(5-(pyridin-3-yl)benzo[b]thiophen-3-yl)-1,4-dihydro-pyridine-3,5-diyl)diethanone]

Target: T2, Human Glucocorticoid Receptor (Homo sapiens, UniProt P04150)
T2 construct: endogenous in cells; host or cells: cytosol from IM-9 cell line
T2 sequence (P04150 1-777): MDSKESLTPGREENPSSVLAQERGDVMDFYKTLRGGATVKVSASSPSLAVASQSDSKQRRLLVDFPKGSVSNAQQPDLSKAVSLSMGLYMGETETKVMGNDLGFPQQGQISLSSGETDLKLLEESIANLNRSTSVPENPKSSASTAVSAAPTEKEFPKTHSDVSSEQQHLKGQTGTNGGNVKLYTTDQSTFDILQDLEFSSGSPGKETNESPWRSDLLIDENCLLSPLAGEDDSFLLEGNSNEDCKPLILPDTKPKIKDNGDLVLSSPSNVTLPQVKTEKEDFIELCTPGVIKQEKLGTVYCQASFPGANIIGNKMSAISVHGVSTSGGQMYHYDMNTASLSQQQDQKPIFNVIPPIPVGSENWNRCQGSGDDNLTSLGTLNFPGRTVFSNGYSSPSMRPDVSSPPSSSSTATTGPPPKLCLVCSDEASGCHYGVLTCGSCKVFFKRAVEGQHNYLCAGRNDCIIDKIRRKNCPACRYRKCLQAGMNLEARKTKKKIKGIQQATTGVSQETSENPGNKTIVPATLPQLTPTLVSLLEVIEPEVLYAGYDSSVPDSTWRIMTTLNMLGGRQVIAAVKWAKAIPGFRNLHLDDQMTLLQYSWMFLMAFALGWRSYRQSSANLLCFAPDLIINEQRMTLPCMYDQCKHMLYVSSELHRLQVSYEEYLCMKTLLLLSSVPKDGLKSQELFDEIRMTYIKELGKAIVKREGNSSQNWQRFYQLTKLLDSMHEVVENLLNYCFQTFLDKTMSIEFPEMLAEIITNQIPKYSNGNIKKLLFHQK
Assay: Competition Binding in IM-9 Human Glucocorticoid Receptor (GR IM-9)
Details: cytosol from IM-9 cell line, 1.5 nM [3H]-Dexamethasone, 4° C. for 6 hours
In short: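 Radioligand competition using 100 μg IM-9 cell cytosol and 1.5 nM [3H]-dexamethasone, incubated 6 h at 4° C in TES/molybdate buffer, pH 7.4. Filtration on PEI-treated GF/B filters, scintillation counting; nonspecific binding defined with 10 μM triamcinolone.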

Row | IC50 [nM] | Structure (SMILES)
22 | < 100 | CC(=O)C1=C(C)NC(C)=C(C(=O)OCC2CCCC2)C1c1csc2ncccc12 (stereo not shown) [Example C35, Cyclopentylmethyl 5-acetyl-2,6-dimethyl-4-(thieno[2,3-b]pyridin-3-yl)-1,4-dihydropyridine-3-carboxylate]
